# Data as given in publication PMC12266748, “A Xanthine Derivative With Novel Heat Shock Protein 90‐Alpha Inhibitory and Senolytic Properties” (Aging Cell, 2025).
# “Also recorded” adds a separate entry of the source. Like-named read-outs stand apart in the source and are kept apart here.
# Columns and labels:
# [1] = Bidirectional permeability in Caco-2 cells; assay type: in vitro ADME; conditions: 5 µM, HBSS pH 7.4, 2 hours
# Procedure: APHAD S.r.l (Buccinasco, MI, Italy) performed all evaluations. Detailed protocols are reported in the extended methods section.
# Permeability in Caco-2 cells. To evaluate the bidirectional permeability of the 2 compounds, Caco-2 cells (ECACC, ReadyCells, Barcellona, Spain), considered a reference cellular line for in vitro preclinical evaluation of oral dosage products, were used. These cells are cultured in monolayers, which become differentiated polarized epithelial cells after 21 days, expressing tight junctions, microvilli, intracellular metabolic enzymes, and transmembrane transporters such as BCRP, MDR1, and MRP2 (an artificial model equivalent to the intestinal epithelium). […] At the end of the experiment, the integrity of the cellular junction was measured by incubating the Lucifer yellow (LY) at the apical side (at the concentration of 0.02 mg/mL in MEM medium) and with MEM medium in the basolateral compartment for 1 hour at 37°C. At the end of incubation, fluorescence was read on a fluorimeter at λ 430-538nm. Samples were analyzed on a UPLC Acquity (Waters) coupled with an API 3200 Triple Quadrupole AB Sciex. […] The apparent permeability (Papp), the efflux ratio (ER), and the Recovery (R) were calculated to allow for estimation of metabolism and non-specific binding. […] Data are expressed as mean of n=2 (± SD).
# IMR90 cells = experiment: In vitro screening of the 14 in silico-selected compounds, surviving cell count, proliferating vs senescent IMR90; assay type: cell-based, Homo sapiens; conditions: 48 h; for effect on non-senescent IMR90 cells: PD15-PD17, 1 μM; for senolytic activity on senescent IMR90 cells: PD19-PD21, 1 μM
# Description: (§1) IMR90 and WI38 lung fibroblasts were purchased from ECACC‐Merck. Human bone marrow (BM)‐derived mesenchymal stromal cells (MSCs) were purchased from Lonza. Human umbilical vein endothelial cells (HUVECs) are primary cells obtained from a pool of donors purchased from Clonetics (Lonza). Murine ear fibroblasts (MearFs) were obtained from C57BL/6J mice maintained in the INRCA “Specific Pathogen Free” (SPF) animal facility. MCF7 breast cancer cells were purchased from ATCC. For dose–response curves, IMR90 and WI38 were induced to senescence through replicative passages; MSCs, HUVECs, and MearFs senescence was induced with Doxorubicin; MCF7 senescence was induced with 4‐Hydroxytamoxifen (Lee et al. [2014]). The EC50 was calculated using GraphPad Prism 10 software. All treatment specifications are reported in the extended section.
# (§2) Cell culture and treatment. IMR90 cells (Homo sapiens, fetal lung, fibroblast) and WI38 cells (Homo sapiens, fetal lung, fibroblast) were purchased from ECACC-Merck (Merck, Darmstadt, Germany) and cultured in MEM medium (Euroclone, Milano, Italy) supplemented with 1% L-Glutamine (Euroclone, Milano, Italy), 1% Penicillin-Streptomycin (Euroclone, Milano, Italy), and 10% Fetal Bovine Serum (FBS, Euroclone, Milano, Italy), at 37°C, 5% CO2. IMR90 cells with a population doubling (PD) from PD15 to PD23 were used; cells were considered incrementally senescent from passage PD19 to passage PD23. WI38 cells were used from PD26 to PD53. Cells were considered incrementally senescent from passage PD49 to passage PD53. For the compounds in vitro screening, IMR90 cells with passages from PD15 to PD23 were tested at increasing concentrations of 0.5 μM, 1 μM, 10 μM, and 25 μM over 24 and 48 h to evaluate the compounds' efficacy and cytotoxicity compared to the Vehicle (DMSO ≤ 0.1%). Cells were counted manually, in triplicate, using Trypan blue reagent (Euroclone) and disposable Bürker chambers. […] K5 dose-response proliferation curves were performed with compound K5 (Molport, SIA, Riga, Latvia) in concentrations 0.1, 0.5, 1, 5, 10, 50, 100, and 200 μM for 48 h. Cells were counted using a Trypan blue reagent and EVAplus cell counter. The EC50s were calculated by analyzing the data using GraphPad Prism 10 software.
# WI38 cells = experiment: Dose-response curves on proliferating and replicative senescent WI38 (Trypan blue cell count); assay type: cell-based; conditions: for EC50: Homo sapiens, WI-38
# Description: as §1, §2
# MCF7 cell line (ATCC; HTB-22, Homo sapiens, breast cancer) was purchased from ATCC; cells were grown in MEM medium (Corning, New York, USA, #15-010-CVR) supplemented with 10% FBS (Gibco, Invitrogen, Carlsbad, CA, USA, #10270106), 1% glutamine (Corning #25005-CI), 1% penicillin and streptomycin (Corning #30002-CI). Cells were incubated at 37 °C with 5% CO2. Senescent status induction: MCF7 were plated 24 h before the treatment with 4-Hydroxytamoxifen (TAM) 10 μM to induce the senescence described by (Lee et al. 2014). Control cultures were treated with equal volumes of 75% ethanol as the vehicle. The treatment with TAM lasts 96 h, after which the cells have been washed and treated with the senolytic drugs K5 10 µM for another 96 h. The treatment with the senolytic compounds has been renewed at 48 h. Cell mortality and vitality curves after treatment with K5 (10 μM, orange) or Vehicle (DMSO, grey) were monitored using the Incucyte live-cell Analysis system (Sartorius, Goettingen, Germany). The estimated Senolytic index (SI) was calculated as the ratio between the EC50 in proliferating cells and the EC50 in senescent cells, extrapolated using GraphPad Prism 10 software.
Compound,Caco-2 bidirectional permeability [1],effect on non-senescent IMR90 cells (IMR90 cells),senolytic activity on senescent IMR90 cells (IMR90 cells),"EC50 (WI38 cells; WI38, Replicative/passages, read-out: EC50 senescent cells)","EC50 (WI38 cells; WI38, read-out: EC50 proliferating cells)","Senolytic evidence (no, partly/yes) (WI38 cells; WI38, Replicative/passages)","Senolytic index (estimated) (WI38 cells; WI38, SI = EC50 in proliferating cells/EC50 senescent cells)","toxicity in proliferating cells (WI38 cells; proliferating WI38 (PD29), 100 nM to 200 μM, 48 h)"
"CC(C)(C)S(=O)(=O)C/C(N)=N/OS(=O)(=O)c1ccc(F)cc1F [Compound K4, (Z)-N'-[(2,4-difluorobenzenesulfonyl)oxy]-2-(2-methylpropane-2-sulfonyl)ethanimidamide]",no K4 signal was detected,robust level of safety,evident senolytic activity; also recorded: highest senolytic activity,,,,,
"Cc1ccccc1-n1c(=O)n(Cc2ccccc2)c(=O)c2[nH]cnc21 [Compound K5, 1-benzyl-3-(2-methylphenyl)-7H-purine-2,6-dione]",excellent permeability in both directions,robust level of safety,evident senolytic activity; also recorded: highest senolytic activity,650 nM,> 500000 nM,Yes,> 770,no evident toxicity
